Experimental findings from a melting point compilation (Tetko et al.; mined from patent text by program, amines drawn as free bases though some values may be those of a salt) are described below.

By melting point is commonly meant the temperature, or range, at which the solid turns liquid.

As to `CCCc1cc2cc(O)c(F)cc2c(Oc2ccc(/C=C/C(N)=O)cc2)c1-c1ccccc1`, the melting point lay within 121 to 124 °C.

Take `CCCCCc1ccc(C2c3c(C)c(N)c(C)c(C)c3OC2(C)C)cc1` (stereo not given): the melting point was in the range of 67 to 68 °C.

On to `COc1cc2c3c([nH]c2c(Cl)c1Cl)C(=O)NCC3`, for which the melting point is 263 to 264 °C.

`CC=NN(C(=O)c1ccccc1)c1ccc(OC)c(F)c1`: the melting point was 110 to 112 °C.

Turning to `Fc1cc(F)cc(-c2nc(-c3ccccn3)no2)c1`, the melting point lay within 115 to 119 °C.
